# Results taken from patent publication US12662498B2 (priority 2017, dated 2026).
# Assays:
# [1] = Heat cycling slurry maturation of Psilocybin Pattern A in 24 solvents (visual solubility); further: test concentration or dose not given here
# [2] = ICH stability study of psilocybin batches (appearance, water content, purity, assay); settings: accelerated conditions
structure (smiles),measurement,setting,value
CN(C)CCc1c[nH]c2cccc(OP(=O)(O)O)c12 [Polymorph A],"Obs. 20° C., 0.4 ml",[1]; 2-Chlorobutane,Susp.
same,"Obs. 20° C., 0.8 ml",[1]; 2-Chlorobutane,Susp.
same,"Obs. 20° C., 1.2 ml",[1]; 2-Chlorobutane,Susp.
same,Obs. 50° C.,"[1]; 2-Chlorobutane, 1.2 ml",Susp.
same,"Obs. 20° C., 0.4 ml",[1]; 4:1 EtOH/water,Susp.
same,"Obs. 20° C., 0.8 ml",[1]; 4:1 EtOH/water,Susp.
same,"Obs. 20° C., 1.2 ml",[1]; 4:1 EtOH/water,Susp.
same,Obs. 50° C.,"[1]; 4:1 EtOH/water, 1.2 ml",Susp.
same,"Obs. 20° C., 0.4 ml",[1]; 4:1 IPA/water,Susp.
same,"Obs. 20° C., 0.8 ml",[1]; 4:1 IPA/water,Susp.
same,"Obs. 20° C., 1.2 ml",[1]; 4:1 IPA/water,Susp.
same,Obs. 50° C.,"[1]; 4:1 IPA/water, 1.2 ml",Susp.
same,"Obs. 20° C., 0.4 ml",[1]; 4:1 THF/water,Susp.
same,"Obs. 20° C., 0.8 ml",[1]; 4:1 THF/water,Susp.
same,"Obs. 20° C., 1.2 ml",[1]; 4:1 THF/water,Susp.
same,Obs. 50° C.,"[1]; 4:1 THF/water, 1.2 ml",Susp.
same,"Obs. 20° C., 0.4 ml",[1]; Anisole,Susp.
same,"Obs. 20° C., 0.8 ml",[1]; Anisole,Susp.
same,"Obs. 20° C., 1.2 ml",[1]; Anisole,Susp.
same,Obs. 50° C.,"[1]; Anisole, 1.2 ml",Susp.
same,"Obs. 20° C., 0.4 ml",[1]; Benzotrifluoride,Susp.
same,"Obs. 20° C., 0.8 ml",[1]; Benzotrifluoride,Susp.
same,"Obs. 20° C., 1.2 ml",[1]; Benzotrifluoride,Susp.
same,Obs. 50° C.,"[1]; Benzotrifluoride, 1.2 ml",Susp.
same,"Obs. 20° C., 0.4 ml",[1]; CHCl3,Susp.
same,"Obs. 20° C., 0.8 ml",[1]; CHCl3,Susp.
same,"Obs. 20° C., 1.2 ml",[1]; CHCl3,Susp.
same,Obs. 50° C.,"[1]; CHCl3, 1.2 ml",Susp.
same,"Obs. 20° C., 0.4 ml",[1]; CPME,Susp.
same,"Obs. 20° C., 0.8 ml",[1]; CPME,Susp.
same,"Obs. 20° C., 1.2 ml",[1]; CPME,Susp.
same,Obs. 50° C.,"[1]; CPME, 1.2 ml",Susp.
same,"Obs. 20° C., 0.4 ml",[1]; Chlorobenzene,Susp.
same,"Obs. 20° C., 0.8 ml",[1]; Chlorobenzene,Susp.
same,"Obs. 20° C., 1.2 ml",[1]; Chlorobenzene,Susp.
same,Obs. 50° C.,"[1]; Chlorobenzene, 1.2 ml",Susp.
same,"Obs. 20° C., 0.4 ml",[1]; Cyclohexane,Susp.
same,"Obs. 20° C., 0.8 ml",[1]; Cyclohexane,Susp.
same,"Obs. 20° C., 1.2 ml",[1]; Cyclohexane,Susp.
same,Obs. 50° C.,"[1]; Cyclohexane, 1.2 ml",Susp.
same,"Obs. 20° C., 0.4 ml",[1]; EtOAc,Susp.
same,"Obs. 20° C., 0.8 ml",[1]; EtOAc,Susp.
same,"Obs. 20° C., 1.2 ml",[1]; EtOAc,Susp.
same,Obs. 50° C.,"[1]; EtOAc, 1.2 ml",Susp.
same,"Obs. 20° C., 0.4 ml",[1]; EtOH,Susp.
same,"Obs. 20° C., 0.8 ml",[1]; EtOH,Susp.
same,"Obs. 20° C., 1.2 ml",[1]; EtOH,Susp.
same,Obs. 50° C.,"[1]; EtOH, 1.2 ml",Susp.
same,"Obs. 20° C., 0.4 ml",[1]; Heptane,Susp.
same,"Obs. 20° C., 0.8 ml",[1]; Heptane,Susp.
same,"Obs. 20° C., 1.2 ml",[1]; Heptane,Susp.
same,Obs. 50° C.,"[1]; Heptane, 1.2 ml",Susp.
same,"Obs. 20° C., 0.4 ml",[1]; IPA,Susp.
same,"Obs. 20° C., 0.8 ml",[1]; IPA,Susp.
same,"Obs. 20° C., 1.2 ml",[1]; IPA,Susp.
same,Obs. 50° C.,"[1]; IPA, 1.2 ml",Susp.
same,"Obs. 20° C., 0.4 ml",[1]; MEK,Susp.
same,"Obs. 20° C., 0.8 ml",[1]; MEK,Susp.
same,"Obs. 20° C., 1.2 ml",[1]; MEK,Susp.
same,Obs. 50° C.,"[1]; MEK, 1.2 ml",Susp.
same,"Obs. 20° C., 0.4 ml",[1]; MIBK,Susp.
same,"Obs. 20° C., 0.8 ml",[1]; MIBK,Susp.
same,"Obs. 20° C., 1.2 ml",[1]; MIBK,Susp.
same,Obs. 50° C.,"[1]; MIBK, 1.2 ml",Susp.
same,"Obs. 20° C., 0.4 ml",[1]; MeCN,Susp.
same,"Obs. 20° C., 0.8 ml",[1]; MeCN,Susp.
same,"Obs. 20° C., 1.2 ml",[1]; MeCN,Susp.
same,Obs. 50° C.,"[1]; MeCN, 1.2 ml",Susp.
same,"Obs. 20° C., 0.4 ml",[1]; MeOH,Susp.
same,"Obs. 20° C., 0.8 ml",[1]; MeOH,Susp.
same,"Obs. 20° C., 1.2 ml",[1]; MeOH,Susp.
same,Obs. 50° C.,"[1]; MeOH, 1.2 ml",Susp.
same,"Obs. 20° C., 0.4 ml",[1]; Nitromethane,Susp.
same,"Obs. 20° C., 0.8 ml",[1]; Nitromethane,Susp.
same,"Obs. 20° C., 1.2 ml",[1]; Nitromethane,Susp.
same,Obs. 50° C.,"[1]; Nitromethane, 1.2 ml",Susp.
same,"Obs. 20° C., 0.4 ml",[1]; TBME,Susp.
same,"Obs. 20° C., 0.8 ml",[1]; TBME,Susp.
same,"Obs. 20° C., 1.2 ml",[1]; TBME,Susp.
same,Obs. 50° C.,"[1]; TBME, 1.2 ml",Susp.
same,"Obs. 20° C., 0.4 ml",[1]; THF,Susp.
same,"Obs. 20° C., 0.8 ml",[1]; THF,Susp.
same,"Obs. 20° C., 1.2 ml",[1]; THF,Susp.
same,Obs. 50° C.,"[1]; THF, 1.2 ml",Susp.
same,"Obs. 20° C., 0.4 ml",[1]; Toluene,Susp.
same,"Obs. 20° C., 0.8 ml",[1]; Toluene,Susp.
same,"Obs. 20° C., 1.2 ml",[1]; Toluene,Susp.
same,Obs. 50° C.,"[1]; Toluene, 1.2 ml",Susp.
same,"Obs. 20° C., 0.4 ml",[1]; Water,Susp.
same,"Obs. 20° C., 0.8 ml",[1]; Water,Susp.
same,"Obs. 20° C., 1.2 ml",[1]; Water,Susp.
same,Obs. 50° C.,"[1]; Water, 1.2 ml",Solution
same,"Obs. 20° C., 0.4 ml",[1]; iPrOAc,Susp.
same,"Obs. 20° C., 0.8 ml",[1]; iPrOAc,Susp.
same,"Obs. 20° C., 1.2 ml",[1]; iPrOAc,Susp.
same,Obs. 50° C.,"[1]; iPrOAc, 1.2 ml",Susp.
same,time stable under accelerated stability testing conditions,[2],12 months
